Experimental findings from PMC6337650 (Molecules, 2018) are described below.

Broadly, the melting point is the temperature of the solid-liquid transition. In general, inhibition refers to the change of the read-out against control, counted positive when it falls. The IC50 is the concentration at which inhibition is half-maximal.

One data set has as its system BEL-7402 cells. Description: MTT antiproliferative assay, BEL-7402. In kind it is cell-based, human. To be noted: Homo sapiens, Bel-7402, 48 h, MTT, mean ± SD, n=3; for inhibition at 100 µM: read-out: % Growth Inhibition at 100 μM BEL-7402. The method, then: (§1) The antiproliferative activity of the target compounds against a normal L02 cell line and the three different human cancer cell lines viz. colorectal (HCT-116), liver (BEL-7402) and liver (HepG2) were evaluated using a standard MTT-based colorimetric assay. All cell lines were obtained from the Key Laboratory of Natural Resources and Functional Molecules of the Changbai Mountain (Yanbian University, Jilin, China) and maintained in Dulbecco’s modified Eagle’s medium (DMEM) and RPMI Media 1640 (RPMI1640), supplemented with 10% fetal bovine serum (FBS) at 37 °C in a humidified atmosphere containing 5% CO2.
(§2) Cells were plated in 96-well plates at appropriate densities to ensure exponential growth throughout the experimental period (9 × 10^3 cells per well) and then allowed to adhere for 24 h. Cells were then treated for 48 h with four serial concentrations (1, 10, 50 and 100 µM) of each compound. 5-fluorouracil (5-FU) was used as a positive control. After 48 h of incubation, 10 µL of MTT solution was added to each well to a final concentration of 2 mg/mL. Plates were then incubated for a further 4 h. After incubation, the MTT solution was removed and 150 µL of DMSO was added to each well for coloration. The plates were shaken vigorously for 10 min at room temperature to ensure complete solubilization. The optical density (OD) was read on a microplate reader (ELx800, BioTek, Highland Park, Winooski, VT, USA) at a wavelength of 492 nm and the data were subsequently analyzed. The percentage of cell growth inhibition was calculated from the following equation: Inhibitory rate (%) = [(1 − (ODtreated-ODblank)/(ODcontrol-ODblank)] × 100.(1)
(In general: Tetrazolium assays rely on reduction of a dye to a coloured formazan, in cell work by metabolically active cells.)

The test system of the next data set is HCT-116 cells. As to the kind of experiment: MTT antiproliferative assay, HCT-116. To be noted: Homo sapiens, HCT-116, 48 h, MTT, mean ± SD, n=3; for inhibition at 100 µM: read-out: % Growth Inhibition at 100 μM HCT-116. Type of data set: cell-based, human. The procedure:
as §1, §2

Another data set relates to HepG2 cells. As to the kind of experiment: MTT antiproliferative assay, HepG2. In kind it is cell-based, human. To be noted: Homo sapiens, HepG2, 48 h, MTT, mean ± SD, n=3; for inhibition at 100 µM: read-out: % Growth Inhibition at 100 μM HepG2. The method, then: as §1, §2
For the next data set, the system named is L02 cells. Description: MTT assay on normal liver cells L02. Type of data set: cell-based. To be noted: Homo sapiens, normal liver cells, 48 h, MTT, Table 2, read-out: IC50 Values (μM) L02. The procedure: as §1
as §2, with “5-fluorouracil (5-FU) was used as a positive control.” left out

On to `C[C@@]12CC[C@@H]3[C@@](CC[C@H]4[C@@]3(C)CCC[C@@]4(C)C(=O)OCC(=O)N3CCCCCC3)(CC1=O)C2` [Compound 2e, 2-(azepan-1-yl)-2-oxoethyl(4R,4aS,6aR,9S,11aR,11bS)-4,9,11b-trimethyl-8-oxotetradecahydro-6a,9-methanocyclohepta[a]naphthalene-4-carboxylate], for which the melting point fell in the range of 110 to 112 °C. In the data set with BEL-7402 cells, the inhibition at 100 µM amounted to 64.9 ± 1.01% and the IC50 turned out to be 13.2 ± 0.32 µM. Further, in the data set on HCT-116 cells, the inhibition at 100 µM was 85.6 ± 0.96% and the IC50 was greater than 100 µM. Also, in the data set on HepG2 cells, the inhibition at 100 µM came out at 50.4 ± 0.57% and the IC50 turned out to be 20.5 ± 0.46 µM. The IC50 in the data set with L02 cells was greater than 100 µM.

Turning to `C[C@@]12CC[C@@H]3[C@@](CC[C@H]4[C@@]3(C)CCC[C@@]4(C)C(=O)O)(CC1=O)C2` [Isosteviol, isosteviol, reference compound], the inhibition at 100 µM in the data set on BEL-7402 cells was 28 ± 1.79%; in the data set with HCT-116 cells, 34.1 ± 1.89%; with HepG2 cells it was 11.8 ± 0.88%. Besides, the IC50 in the data set with BEL-7402 cells, with HCT-116 cells, in the data set with HepG2 cells and in the data set with L02 cells was greater than 100 µM each time.

In turn, `C[C@@]12CC[C@@H]3[C@@](CC[C@H]4[C@@]3(C)CCC[C@@]4(C)C(=O)OCC(=O)Nc3cccc(Cl)c3)(CC1=O)C2` [Compound 4c, 2-((3-chlorophenyl)amino)-2-oxoethyl(4R,4aS,6aR,9S,11aR,11bS)-4,9,11b-trimethyl-8-oxotetradecahydro-6a,9-methanocyclohepta[a]naphthalene-4-carboxylate] registered a melting point of 120 to 122 °C. Moreover, the inhibition at 100 µM in the data set with BEL-7402 cells is 35.7 ± 2.56%. Further, in the data set with HCT-116 cells, the inhibition at 100 µM was found to be 62.3 ± 3.55%. The inhibition at 100 µM in the data set with HepG2 cells was less than 10%.

The compound `C[C@@]12CC[C@@H]3[C@@](CC[C@H]4[C@@]3(C)CCC[C@@]4(C)C(=O)OCC(=O)Nc3ccc(F)cc3)(CC1=O)C2` [Compound 4g, 2-((4-fluorophenyl)amino)-2-oxoethyl(4R,4aS,6aR,9S,11aR,11bS)-4,9,11b-trimethyl-8-oxotetradecahydro-6a,9-methanocyclohepta[a]naphthalene-4-carboxylate] showed a melting point of 140 to 141 °C. In the data set with BEL-7402 cells, the inhibition at 100 µM turned out to be 63 ± 2.13%. Further, the inhibition at 100 µM with HCT-116 cells is 65.6 ± 3.01%. Further, the inhibition at 100 µM in the data set with HepG2 cells was determined as 39.1 ± 1.13%.

`CCOP(=O)(OCC)C(NC(=O)COC(=O)[C@]1(C)CCC[C@@]2(C)[C@@H]3CC[C@@]4(C)C[C@]3(CC[C@@H]21)CC4=O)c1ccc(Cl)cc1` (stereo partly drawn) [Compound 6b, 2-(((4-chlorophenyl)(diethoxyphosphoryl)methyl)amino)-2-oxoethyl(4R,4aS,6aR,9S,11aR,11bS)-4,9,11b-trimethyl-8-oxotetradecahydro-6a,9-methanocyclohepta[a]naphthalene-4-carboxylate] gave a melting point of 149 to 150 °C. Further, in the data set on BEL-7402 cells, the inhibition at 100 µM was 50.4 ± 1.63%. In the data set on HCT-116 cells, the inhibition at 100 µM is 50.3 ± 2.31%. For the same compound, the inhibition at 100 µM in the data set on HepG2 cells was found to be 40.2 ± 2.56%.

Compound `CON(C)C(=O)[C@]1(C)CCC[C@@]2(C)[C@@H]3CC[C@@]4(C)C[C@]3(CC[C@@H]21)CC4=O` [Compound 1c, (4R,4aS,6aR,9S,11aR,11bS)-N-methoxy-N,4,9,11b-tetramethyl-8-oxotetradecahydro-6a,9-methanocyclohepta[a]naphthalene-4-carboxamide] registered a melting point of 144 to 145 °C. In the data set on BEL-7402 cells, the inhibition at 100 µM was determined as 31.3 ± 1.22%. Also, in the data set on HCT-116 cells, the inhibition at 100 µM is less than 10%. The inhibition at 100 µM in the data set with HepG2 cells was less than 10%.
